The test system of the data set is Hepatotoxicity. The data set can be described thus: Literature-mined public compounds from Greene et al multi-species hepatotoxicity modelling dataset.

For 55 compounds, Hepatotoxicity results are on record in ChEMBL document CHEMBL1697692, “Developing structure-activity relationships for the prediction of hepatotoxicity” (Chem Res Toxicol, 2010).

Counter-ions that a name gives are not always drawn. Bridge positions count the residues as written; N and C are the ends. Square brackets hold non-standard residues; d marks the D form. Peptide text beside a SMILES is read from it. * marks the point of attachment. Ileψ(thiazoline)Cys = CC[C@H](C)[C@H](N)C1=N[C@H](C(=O)*)CS1; dOrn = NCCC[C@@H](N)C(=O)O

Consider `CC(=O)Nc1ccc(O)cc1` [ACETAMINOPHEN], for which the Hepatotoxicity entry is given as “HH: Evidence of human hepatotoxicity”.

In the case of `CC(=O)Nc1nnc(S(N)(=O)=O)s1` [ACETAZOLAMIDE], the Hepatotoxicity result is recorded as “HH: Evidence of human hepatotoxicity”.

Turning to `CC(=O)c1ccc(S(=O)(=O)NC(=O)NC2CCCCC2)cc1` [ACETOHEXAMIDE], the Hepatotoxicity entry is “HH: Evidence of human hepatotoxicity”.

As to `CC(=O)OCC[N+](C)(C)C.[Cl-]` [ACETYLCHOLINE CHLORIDE], the Hepatotoxicity result is listed as “NE: No evidence of hepatotoxicity in any species”.

Turning to `CC(=O)N[C@@H](CS)C(=O)O` [ACETYLCYSTEINE], the Hepatotoxicity result is listed as “NE: No evidence of hepatotoxicity in any species”.

Regarding `COc1cc(C)c(/C=C/C(C)=C/C=C/C(C)=C/C(=O)O)c(C)c1C` [ACITRETIN], the Hepatotoxicity entry was “HH: Evidence of human hepatotoxicity”.

On to `N[C@H](C(=O)O)[C@@H]1CC(Cl)=NO1` [ACIVICIN], for which the Hepatotoxicity entry is listed as “NE: No evidence of hepatotoxicity in any species”.

Regarding `CC[C@@]1(O)C[C@H](O[C@H]2C[C@H](N(C)C)[C@H](O[C@H]3C[C@H](O)[C@H](O[C@H]4CCC(=O)[C@H](C)O4)[C@H](C)O3)[C@H](C)O2)c2c(cc3c(c2O)C(=O)c2c(O)cccc2C3=O)[C@H]1C(=O)OC.Cl` [ACLARUBICIN HYDROCHLORIDE], the Hepatotoxicity result is reported as “WE: Weak evidence (<10 case reports) of human hepatotoxicity”.

As to `Nc1ncnc2c1ncn2[C@@H]1O[C@H](CO)[C@@H](O)[C@H]1O` [ADENOSINE], the Hepatotoxicity entry is given as “NE: No evidence of hepatotoxicity in any species”.

On to `COc1cc2c(c3oc(=O)c4c(c13)CCC4=O)[C@@H]1C=CO[C@@H]1O2` [AFLATOXIN], for which the Hepatotoxicity result is “HH: Evidence of human hepatotoxicity”.

As to `CCCSc1ccc2nc(NC(=O)OC)[nH]c2c1` [ALBENDAZOLE], the Hepatotoxicity entry is reported as “HH: Evidence of human hepatotoxicity”.

Turning to `Oc1ncnc2[nH]ncc12` [ALLOPURINOL], the Hepatotoxicity entry is recorded as “HH: Evidence of human hepatotoxicity”.

As for `C=CCO` [ALLYL ALCOHOL], the Hepatotoxicity result is recorded as “HH: Evidence of human hepatotoxicity”.

As for `C=CCOC=O` [ALLYL FORMATE], the Hepatotoxicity result is “HH: Evidence of human hepatotoxicity”.

For `CCCN(CCC)C(=O)Cc1c(-c2ccc(Cl)cc2)nc2ccc(Cl)cn12` [ALPIDEM], the Hepatotoxicity result was “HH: Evidence of human hepatotoxicity”.

Regarding `Cl.NC12CC3CC(CC(C3)C1)C2` [AMANTADINE HYDROCHLORIDE], the Hepatotoxicity entry is listed as “NE: No evidence of hepatotoxicity in any species”.

As to `Cl.N=C(N)NC(=O)c1nc(Cl)c(N)nc1N.O.O` [AMILORIDE HYDROCHLORIDE], the Hepatotoxicity result is “NE: No evidence of hepatotoxicity in any species”.

`Cl.O=C(O)CCCCCCNC1c2ccccc2CCc2ccccc21` [AMINEPTINE HYDROCHLORIDE]: the Hepatotoxicity result is “HH: Evidence of human hepatotoxicity”.

As for `Nc1ccc(C(=O)[O-])cc1.[K+]` [AMINOBENZOATE POTASSIUM], the Hepatotoxicity entry is on record as “NE: No evidence of hepatotoxicity in any species”.

In the case of `NCCCCCC(=O)O` [AMINOCAPROIC ACID], the Hepatotoxicity entry is “NE: No evidence of hepatotoxicity in any species”.

As to `CCC1(c2ccc(N)cc2)CCC(=O)NC1=O` (stereo not given) [AMINOGLUTETHIMIDE], the Hepatotoxicity result is on record as “NE: No evidence of hepatotoxicity in any species”.

Turning to `Nc1ccc(C(=O)O)c(O)c1` [AMINOSALICYLIC ACID], the Hepatotoxicity result is listed as “HH: Evidence of human hepatotoxicity”.

As for `CCCCc1oc2ccccc2c1C(=O)c1cc(I)c(OCCN(CC)CC)c(I)c1` [AMIODARONE], the Hepatotoxicity result was “HH: Evidence of human hepatotoxicity”.

For `CN(C)CCC=C1c2ccccc2CCc2ccccc21.Cl` [AMITRIPTYLINE HYDROCHLORIDE], the Hepatotoxicity result is “WE: Weak evidence (<10 case reports) of human hepatotoxicity”.

For `Cl.N` [AMMONIUM CHLORIDE], the Hepatotoxicity entry is reported as “NE: No evidence of hepatotoxicity in any species”.

Take `Clc1ccc2c(c1)C(N1CCNCC1)=Nc1ccccc1O2` [AMOXAPINE]: the Hepatotoxicity entry is recorded as “WE: Weak evidence (<10 case reports) of human hepatotoxicity”.

As to `CC1(C)S[C@@H]2[C@H](NC(=O)[C@H](N)c3ccc(O)cc3)C(=O)N2[C@H]1C(=O)O` [AMOXICILLIN], the Hepatotoxicity result is recorded as “WE: Weak evidence (<10 case reports) of human hepatotoxicity”.

Regarding `C[C@@H]1[C@H](O)[C@@H](C)/C=C/C=C/C=C/C=C/C=C/C=C/C=C/[C@H](O[C@@H]2O[C@H](C)[C@@H](O)[C@H](N)[C@@H]2O)C[C@@H]2O[C@](O)(C[C@@H](O)C[C@@H](O)[C@H](O)CC[C@@H](O)C[C@@H](O)CC(=O)O[C@H]1C)C[C@H](O)[C@H]2C(=O)O` [AMPHOTERICIN B], the Hepatotoxicity entry was “WE: Weak evidence (<10 case reports) of human hepatotoxicity”.

As for `COc1cc(NS(C)(=O)=O)ccc1Nc1c2ccccc2nc2ccccc12.Cl` [AMSACRINE HYDROCHLORIDE], the Hepatotoxicity entry is listed as “HH: Evidence of human hepatotoxicity”.

For the compound `CCOC(=O)C1(c2ccccc2)CCN(CCc2ccc(N)cc2)CC1.Cl` [ANILERIDINE HYDROCHLORIDE], the Hepatotoxicity entry is “NE: No evidence of hepatotoxicity in any species”.

For the compound `N=C(N)NCCC[C@H](N)C(=O)O` [ARGININE], the Hepatotoxicity result was “NE: No evidence of hepatotoxicity in any species”.

On to `O=[As][As+](=O)[O-]` (stereo not given) [ARSENIC TRIOXIDE], for which the Hepatotoxicity result is reported as “HH: Evidence of human hepatotoxicity”.

As for `O=C1O[C@H]([C@@H](O)CO)C(O)=C1O` [ASCORBIC ACID], the Hepatotoxicity result is reported as “NE: No evidence of hepatotoxicity in any species”.

With `COc1ccc(CCN2CCC(Nc3nc4ccccc4n3Cc3ccc(F)cc3)CC2)cc1` [ASTEMIZOLE], the Hepatotoxicity result is reported as “NE: No evidence of hepatotoxicity in any species”.

For `CC(C)NCC(O)COc1ccc(CC(N)=O)cc1` (stereo not given) [ATENOLOL], the Hepatotoxicity result is “NE: No evidence of hepatotoxicity in any species”.

For the compound `CNCC[C@@H](Oc1ccccc1C)c1ccccc1` [ATOMOXETINE], the Hepatotoxicity result is “HH: Evidence of human hepatotoxicity”.

Regarding `C=C1[C@@H]2CCC3[C@@](CC[C@@H]4[C@H](C(=O)O)C[C@@H](O[C@@H]5O[C@H](CO)[C@@H](OS(=O)(=O)[O-])[C@H](OS(=O)(=O)[O-])[C@H]5OC(=O)CC(C)C)C[C@@]34C)(C2)[C@@H]1O.[K+].[K+]` (stereo not given in full) [ATRACTYLOSIDE], the Hepatotoxicity entry is reported as “HH: Evidence of human hepatotoxicity”.

Take `Nc1ncn([C@@H]2O[C@H](CO)[C@@H](O)[C@H]2O)c(=O)n1` [AZACITIDINE]: the Hepatotoxicity entry was “HH: Evidence of human hepatotoxicity”.

With `Cl.Cl.O=C(CCN1CCN2CCCC2C1)N1c2ccccc2Sc2ccc(Cl)cc21` (stereo not given) [AZACLORZINE HYDROCHLORIDE], the Hepatotoxicity entry is listed as “HH: Evidence of human hepatotoxicity”.

For the compound `[N-]=[N+]=CC(=O)OC[C@H](N)C(=O)O` [AZASERINE], the Hepatotoxicity result is “AH: Evidence for animal hepatotoxicity but not tested in humans”.

For the compound `CN1CCC(=C2c3ccccc3CCc3cccnc32)CC1.O=C(O)/C=C\C(=O)O.O=C(O)/C=C\C(=O)O` [AZATADINE MALEATE], the Hepatotoxicity result is “HH: Evidence of human hepatotoxicity”.

For `Cn1cnc([N+](=O)[O-])c1Sc1ncnc2nc[nH]c12` [AZATHIOPRINE], the Hepatotoxicity entry was “HH: Evidence of human hepatotoxicity”.

With `CC[C@H]1OC(=O)[C@H](C)[C@@H](O[C@H]2C[C@@](C)(OC)[C@@H](O)[C@H](C)O2)[C@H](C)[C@@H](O[C@@H]2O[C@H](C)C[C@H](N(C)C)[C@H]2O)[C@](C)(O)C[C@@H](C)CN(C)[C@H](C)[C@@H](O)[C@]1(C)O` [AZITHROMYCIN], the Hepatotoxicity result is on record as “WE: Weak evidence (<10 case reports) of human hepatotoxicity”.

`CC1(C)S[C@@H]2[C@H](NC(=O)[C@H](NC(=O)N3CCNC3=O)c3ccccc3)C(=O)N2[C@H]1C(=O)[O-].[Na+]` [AZLOCILLIN SODIUM]: the Hepatotoxicity entry is listed as “NE: No evidence of hepatotoxicity in any species”.

In the case of `C[C@H]1[C@H](NC(=O)/C(=N\OC(C)(C)C(=O)O)c2csc(N)n2)C(=O)N1S(=O)(=O)O` [AZTREONAM], the Hepatotoxicity entry is “NE: No evidence of hepatotoxicity in any species”.

Consider `CC[C@H](C)[C@H](N)C1=N[C@H](C(=O)N[C@@H](CC(C)C)C(=O)N[C@H](CCC(=O)O)C(=O)N[C@H](C(=O)N[C@H]2CCCCNC(=O)[C@H](CC(N)=O)NC(=O)[C@@H](CC(=O)O)NC(=O)[C@H](Cc3cnc[nH]3)NC(=O)[C@@H](Cc3ccccc3)NC(=O)[C@H]([C@@H](C)CC)NC(=O)[C@@H](CCCN)NC2=O)[C@@H](C)CC)CS1` [BACITRACIN] ({Ileψ(thiazoline)Cys}-L[dE]IK[dOrn]I[dF]H[dD]N; lactam 4-C), for which the Hepatotoxicity result is “NE: No evidence of hepatotoxicity in any species”.

Take `CN(C)C(=O)Oc1cc(OC(=O)N(C)C)cc(C(O)CNC(C)(C)C)c1` (stereo not given) [BAMBUTEROL]: the Hepatotoxicity entry is recorded as “NE: No evidence of hepatotoxicity in any species”.

Consider `CCC(=O)OCC(=O)[C@@]1(OC(=O)CC)[C@@H](C)C[C@H]2[C@@H]3CCC4=CC(=O)C=C[C@]4(C)[C@@]3(Cl)[C@@H](O)C[C@@]21C` [BECLOMETHASONE DIPROPIONATE], for which the Hepatotoxicity entry is given as “NE: No evidence of hepatotoxicity in any species”.

In the case of `CCOC(=O)[C@H](CCc1ccccc1)N[C@H]1CCc2ccccc2N(CC(=O)O)C1=O` [BENAZEPRIL], the Hepatotoxicity entry is “WE: Weak evidence (<10 case reports) of human hepatotoxicity”.

Regarding `CC(C(=O)O)c1ccc2oc(-c3ccc(Cl)cc3)nc2c1` (stereo not given) [BENOXAPROFEN], the Hepatotoxicity result was “HH: Evidence of human hepatotoxicity”.

Turning to `CCc1oc2ccccc2c1C(=O)c1cc(Br)c(O)c(Br)c1` [BENZBROMARONE], the Hepatotoxicity result was “HH: Evidence of human hepatotoxicity”.

On to `CC(C)COCC(CN(Cc1ccccc1)c1ccccc1)N1CCCC1.Cl.O` (stereo not given) [BEPRIDIL HYDROCHLORIDE], for which the Hepatotoxicity entry was “HH: Evidence of human hepatotoxicity”.

With `CNCCc1ccccn1.Cl.Cl` [BETAHISTINE HYDROCHLORIDE], the Hepatotoxicity entry is “HH: Evidence of human hepatotoxicity”.

Turning to `C[N+](C)(C)CC(=O)O.[Cl-]` [BETAINE HYDROCHLORIDE], the Hepatotoxicity entry was “NE: No evidence of hepatotoxicity in any species”.

For the compound `C[C@H]1C[C@H]2[C@@H]3CCC4=CC(=O)C=C[C@]4(C)[C@@]3(F)[C@@H](O)C[C@]2(C)[C@@]1(O)C(=O)CO` [BETAMETHASONE], the Hepatotoxicity result is “NE: No evidence of hepatotoxicity in any species”.
